# Reference: PubChem BioAssay AID2060335 (Molecular Pharmacology Branch, DTP, NCI, 2025)
# pIC50: −log10 of the molar value.
# System: DU-145 multicell spheroids with HUVEC/MSC, viability
# Test: Anticancer human tumor DU-145 cell line growth inhibition [IpAb];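 further: spheroids exposed to agents for seven days before measurement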;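 on viability, T/C: percent of DMSO vehicle control viability so 100% = untreated level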
# Settings: for pIC50: curve of first compound; for viability, T/C: stronger effect = lower value
# Procedure, shortened: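 Multi-cell spheroids of 60% tumour cells, 25% HUVEC and 15% MSC in ultra-low-attachment U-bottom wells, treated with agents combined with ipatasertib or abemaciclib. Half-log ranges top out near clinical Cmax, or 10 microM when Cmax is unknown.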
# [1] = second compound 0.1 µM, first compound 0.0316 µM
# [2] = second compound 0.1 µM, first compound 0.1 µM
# [3] = second compound 0.1 µM, first compound 0.316 µM
# [4] = second compound 0.1 µM, first compound 1 µM
# [5] = second compound 0.1 µM, first compound 3.16 µM
# [6] = second compound 0.1 µM, first compound 10 µM
# [7] = second compound 0.316 µM, first compound 0.0316 µM
# [8] = second compound 0.316 µM, first compound 0.1 µM
# [9] = second compound 0.316 µM, first compound 0.316 µM
# [10] = second compound 0.316 µM, first compound 1 µM
# [11] = second compound 0.316 µM, first compound 3.16 µM
# [12] = second compound 0.316 µM, first compound 10 µM
# [13] = second compound 1 µM, first compound 0.0316 µM
# [14] = second compound 1 µM, first compound 0.1 µM
# [15] = second compound 1 µM, first compound 0.316 µM
# [16] = second compound 1 µM, first compound 1 µM
# [17] = second compound 1 µM, first compound 3.16 µM
# [18] = second compound 1 µM, first compound 10 µM
# [19] = second compound 3.16 µM, first compound 0.0316 µM
# [20] = second compound 3.16 µM, first compound 0.1 µM
# [21] = second compound 3.16 µM, first compound 0.316 µM
# [22] = second compound 3.16 µM, first compound 1 µM
# [23] = second compound 3.16 µM, first compound 3.16 µM
# [24] = second compound 3.16 µM, first compound 10 µM
# [25] = second compound 10 µM, first compound 0.0316 µM
# [26] = second compound 10 µM, first compound 0.1 µM
# [27] = second compound 10 µM, first compound 0.316 µM
# [28] = second compound 10 µM, first compound 1 µM
# [29] = second compound 10 µM, first compound 3.16 µM
# [30] = second compound 10 µM, first compound 10 µM
compound,measurement,setting,value
C=CC(=O)N1CCN(c2nc(=O)n(-c3c(C)ccnc3C(C)C)c3nc(-c4c(O)cccc4F)c(F)cc23)C(C)C1 (stereo not given) + CC(C)NCC(C(=O)N1CCN(c2ncnc3c2C(C)CC3O)CC1)c1ccc(Cl)cc1,pIC50,second compound 0.1 µM,5.06
same,pIC50,second compound 0.316 µM,5.38
same,pIC50,second compound 1 µM,> 7.50
same,pIC50,second compound 3.16 µM,> 7.50
same,pIC50,second compound 10 µM,> 7.50
same,"viability, T/C",[1],81.3%
same,"viability, T/C",[2],87.7%
same,"viability, T/C",[3],86.1%
same,"viability, T/C",[4],92%
same,"viability, T/C",[5],82.9%
same,"viability, T/C",[6],45.5%
same,"viability, T/C",[7],53.9%
same,"viability, T/C",[8],55%
same,"viability, T/C",[9],59.1%
same,"viability, T/C",[10],59.2%
same,"viability, T/C",[11],52.9%
same,"viability, T/C",[12],37.8%
same,"viability, T/C",[13],34%
same,"viability, T/C",[14],35.5%
same,"viability, T/C",[15],37.6%
same,"viability, T/C",[16],37.4%
same,"viability, T/C",[17],34.5%
same,"viability, T/C",[18],28.3%
same,"viability, T/C",[19],22.4%
same,"viability, T/C",[20],21.9%
same,"viability, T/C",[21],27.5%
same,"viability, T/C",[22],24.4%
same,"viability, T/C",[23],24.5%
same,"viability, T/C",[24],20.7%
same,"viability, T/C",[25],19.5%
same,"viability, T/C",[26],19.3%
same,"viability, T/C",[27],18.5%
same,"viability, T/C",[28],21.6%
same,"viability, T/C",[29],19.9%
same,"viability, T/C",[30],17.1%
CC(C)(C)c1cnc(CSc2cnc(NC(=O)C3CCNCC3)s2)o1 + CC(C)NCC(C(=O)N1CCN(c2ncnc3c2C(C)CC3O)CC1)c1ccc(Cl)cc1,pIC50,second compound 0.1 µM,6.97
same,pIC50,second compound 0.316 µM,7.09
same,pIC50,second compound 1 µM,> 8.02
same,pIC50,second compound 3.16 µM,> 8.02
same,pIC50,second compound 10 µM,> 8.02
same,"viability, T/C","second compound 0.1 µM, first compound 0.00949 µM",89.1%
same,"viability, T/C","second compound 0.1 µM, first compound 0.03 µM",92%
same,"viability, T/C","second compound 0.1 µM, first compound 0.0949 µM",54.7%
same,"viability, T/C","second compound 0.1 µM, first compound 0.3 µM",10%
same,"viability, T/C","second compound 0.1 µM, first compound 0.949 µM",6.37%
same,"viability, T/C","second compound 0.1 µM, first compound 3 µM",5.76%
same,"viability, T/C","second compound 0.316 µM, first compound 0.00949 µM",60.1%
same,"viability, T/C","second compound 0.316 µM, first compound 0.03 µM",60.2%
same,"viability, T/C","second compound 0.316 µM, first compound 0.0949 µM",48.5%
same,"viability, T/C","second compound 0.316 µM, first compound 0.3 µM",8.51%
same,"viability, T/C","second compound 0.316 µM, first compound 0.949 µM",6.34%
same,"viability, T/C","second compound 0.316 µM, first compound 3 µM",5.65%
same,"viability, T/C","second compound 1 µM, first compound 0.00949 µM",33.1%
same,"viability, T/C","second compound 1 µM, first compound 0.03 µM",38.5%
same,"viability, T/C","second compound 1 µM, first compound 0.0949 µM",31.7%
same,"viability, T/C","second compound 1 µM, first compound 0.3 µM",7.62%
same,"viability, T/C","second compound 1 µM, first compound 0.949 µM",5.87%
same,"viability, T/C","second compound 1 µM, first compound 3 µM",5.13%
same,"viability, T/C","second compound 3.16 µM, first compound 0.00949 µM",23.1%
same,"viability, T/C","second compound 3.16 µM, first compound 0.03 µM",25.1%
same,"viability, T/C","second compound 3.16 µM, first compound 0.0949 µM",24%
same,"viability, T/C","second compound 3.16 µM, first compound 0.3 µM",8.35%
same,"viability, T/C","second compound 3.16 µM, first compound 0.949 µM",5.85%
same,"viability, T/C","second compound 3.16 µM, first compound 3 µM",5.4%
same,"viability, T/C","second compound 10 µM, first compound 0.00949 µM",18.1%
same,"viability, T/C","second compound 10 µM, first compound 0.03 µM",21.6%
same,"viability, T/C","second compound 10 µM, first compound 0.0949 µM",15.7%
same,"viability, T/C","second compound 10 µM, first compound 0.3 µM",6.3%
same,"viability, T/C","second compound 10 µM, first compound 0.949 µM",5.1%
same,"viability, T/C","second compound 10 µM, first compound 3 µM",4.5%
Cn1ncc(Cl)c1-c1cc(C(=O)NC(CN)Cc2cccc(F)c2)sc1Cl (stereo not given) + CC(C)NCC(C(=O)N1CCN(c2ncnc3c2C(C)CC3O)CC1)c1ccc(Cl)cc1,pIC50,second compound 0.1 µM,6.85
same,pIC50,second compound 0.316 µM,> 7.50
same,pIC50,second compound 1 µM,> 7.50
same,pIC50,second compound 3.16 µM,> 7.50
same,pIC50,second compound 10 µM,> 7.50
same,"viability, T/C",[1],72.8%
same,"viability, T/C",[2],56.3%
same,"viability, T/C",[3],35.3%
same,"viability, T/C",[4],24.7%
same,"viability, T/C",[5],17%
same,"viability, T/C",[6],0.42%
same,"viability, T/C",[7],46.1%
same,"viability, T/C",[8],41.2%
same,"viability, T/C",[9],33.6%
same,"viability, T/C",[10],24%
same,"viability, T/C",[11],16.4%
same,"viability, T/C",[12],1.33%
same,"viability, T/C",[13],30%
same,"viability, T/C",[14],32.6%
same,"viability, T/C",[15],28%
same,"viability, T/C",[16],24.2%
same,"viability, T/C",[17],15.8%
same,"viability, T/C",[18],0.93%
same,"viability, T/C",[19],22%
same,"viability, T/C",[20],24.4%
same,"viability, T/C",[21],21.7%
same,"viability, T/C",[22],19.6%
same,"viability, T/C",[23],18.7%
same,"viability, T/C",[24],0.86%
same,"viability, T/C",[25],19.4%
same,"viability, T/C",[26],19.7%
same,"viability, T/C",[27],19.7%
same,"viability, T/C",[28],18.5%
same,"viability, T/C",[29],15.8%
same,"viability, T/C",[30],0.27%
Cn1nccc1Nc1nccc(-c2ccn(C(CO)c3ccc(Cl)c(F)c3)c(=O)c2)n1 (stereo not given) + CC(C)NCC(C(=O)N1CCN(c2ncnc3c2C(C)CC3O)CC1)c1ccc(Cl)cc1,pIC50,second compound 0.1 µM,< 5.00
same,pIC50,second compound 0.316 µM,> 7.50
same,pIC50,second compound 1 µM,> 7.50
same,pIC50,second compound 3.16 µM,> 7.50
same,pIC50,second compound 10 µM,> 7.50
same,"viability, T/C",[1],65.6%
same,"viability, T/C",[2],57.1%
same,"viability, T/C",[3],60%
same,"viability, T/C",[4],76.8%
same,"viability, T/C",[5],99%
same,"viability, T/C",[6],66.2%
same,"viability, T/C",[7],42.6%
same,"viability, T/C",[8],36.2%
same,"viability, T/C",[9],35.8%
same,"viability, T/C",[10],45.7%
same,"viability, T/C",[11],66.3%
same,"viability, T/C",[12],60.3%
same,"viability, T/C",[13],27.4%
same,"viability, T/C",[14],24.6%
same,"viability, T/C",[15],26.2%
same,"viability, T/C",[16],30.7%
same,"viability, T/C",[17],42.3%
same,"viability, T/C",[18],47.6%
same,"viability, T/C",[19],18.7%
same,"viability, T/C",[20],16.5%
same,"viability, T/C",[21],19.3%
same,"viability, T/C",[22],20.7%
same,"viability, T/C",[23],27.6%
same,"viability, T/C",[24],36.8%
same,"viability, T/C",[25],13.4%
same,"viability, T/C",[26],11.6%
same,"viability, T/C",[27],11.7%
same,"viability, T/C",[28],14.3%
same,"viability, T/C",[29],21.7%
same,"viability, T/C",[30],24.6%
Cn1ncnc1[C@H]1c2n[nH]c(=O)c3cc(F)cc(c23)N[C@@H]1c1ccc(F)cc1 + CC(C)NCC(C(=O)N1CCN(c2ncnc3c2C(C)CC3O)CC1)c1ccc(Cl)cc1,pIC50,second compound 0.1 µM,< 7.00
same,pIC50,second compound 0.316 µM,7.34
same,pIC50,second compound 1 µM,> 9.50
same,pIC50,second compound 3.16 µM,> 9.50
same,pIC50,second compound 10 µM,> 9.50
same,"viability, T/C","second compound 0.1 µM, first compound 0.000316 µM",85.8%
same,"viability, T/C","second compound 0.1 µM, first compound 0.001 µM",81.1%
same,"viability, T/C","second compound 0.1 µM, first compound 0.00316 µM",83.2%
same,"viability, T/C","second compound 0.1 µM, first compound 0.01 µM",82.1%
same,"viability, T/C",[1],77.9%
same,"viability, T/C",[2],73.4%
same,"viability, T/C","second compound 0.316 µM, first compound 0.000316 µM",56%
same,"viability, T/C","second compound 0.316 µM, first compound 0.001 µM",57.8%
same,"viability, T/C","second compound 0.316 µM, first compound 0.00316 µM",51.9%
same,"viability, T/C","second compound 0.316 µM, first compound 0.01 µM",53.8%
same,"viability, T/C",[7],51.8%
same,"viability, T/C",[8],47.1%
same,"viability, T/C","second compound 1 µM, first compound 0.000316 µM",34.4%
same,"viability, T/C","second compound 1 µM, first compound 0.001 µM",36.3%
same,"viability, T/C","second compound 1 µM, first compound 0.00316 µM",33.5%
same,"viability, T/C","second compound 1 µM, first compound 0.01 µM",33%
same,"viability, T/C",[13],34.3%
same,"viability, T/C",[14],33.6%
same,"viability, T/C","second compound 3.16 µM, first compound 0.000316 µM",24%
same,"viability, T/C","second compound 3.16 µM, first compound 0.001 µM",24.8%
same,"viability, T/C","second compound 3.16 µM, first compound 0.00316 µM",23.9%
same,"viability, T/C","second compound 3.16 µM, first compound 0.01 µM",21.9%
same,"viability, T/C",[19],24.5%
same,"viability, T/C",[20],23.3%
same,"viability, T/C","second compound 10 µM, first compound 0.000316 µM",17.7%
same,"viability, T/C","second compound 10 µM, first compound 0.001 µM",20.1%
same,"viability, T/C","second compound 10 µM, first compound 0.00316 µM",19.6%
same,"viability, T/C","second compound 10 µM, first compound 0.01 µM",19.1%
same,"viability, T/C",[25],18.1%
same,"viability, T/C",[26],19.5%
